Test results as given in the NIST ThermoML archive (doi:10.1021/je201107a).
Numbers after ± are expanded uncertainties.

Key:
[1] = mn = molality of the nth substance listed, in mol/kg; settings: 298.15 K, Ring tensiometer
[2] = cn = amount concentration of the nth substance listed, in mol/dm3; settings: 298.15 K, Ring tensiometer

CCCCCCCCCCCCCC[N+](C)(C)C.[Br-] [tetradecyltrimethylammonium bromide] + O
[1]
Settings | surface tension liquid-gas [mN/m]
m1 = 0.0005 | 53.96 ± 0.7
m1 = 0.00099 | 52.31 ± 0.69
m1 = 0.00148 | 46.35 ± 0.62
m1 = 0.00196 | 41.65 ± 0.56
m1 = 0.00244 | 39 ± 0.53
m1 = 0.00291 | 36.35 ± 0.5
m1 = 0.00338 | 34.05 ± 0.47
m1 = 0.00385 | 33.87 ± 0.47
m1 = 0.00431 | 35.02 ± 0.49
m1 = 0.00476 | 36.24 ± 0.5
m1 = 0.00521 | 35.86 ± 0.49
m1 = 0.00566 | 36.33 ± 0.5
m1 = 0.0061 | 36.74 ± 0.5
m1 = 0.00654 | 36.6 ± 0.5
m1 = 0.00698 | 36.81 ± 0.51

CCCCCCCCCC[N+](C)(C)C.[Br-] [N,N,N-trimethyl-1-decanaminium bromide] + O
[2]
Settings | surface tension liquid-gas [mN/m]
c1 = 0.0118 | 54.43 ± 0.71
c1 = 0.0211 | 48.37 ± 0.64
c1 = 0.0286 | 45.75 ± 0.61
c1 = 0.0348 | 42.87 ± 0.58
c1 = 0.04 | 40.18 ± 0.55
c1 = 0.0444 | 37.98 ± 0.52
c1 = 0.0464 | 37.19 ± 0.51
c1 = 0.0483 | 36.21 ± 0.5
c1 = 0.05 | 36.15 ± 0.5
c1 = 0.0516 | 36.47 ± 0.5
c1 = 0.0531 | 35.98 ± 0.5
c1 = 0.0545 | 35.88 ± 0.49
c1 = 0.0559 | 36.19 ± 0.5
c1 = 0.0571 | 36.31 ± 0.5

CCCCCCCCCCCC[N+](C)(C)C.[Br-] [dodecyltrimethylammonium bromide] + O
[1]
Settings | surface tension liquid-gas [mN/m]
m1 = 0.0005 | 55.13 ± 0.72
m1 = 0.00099 | 55.56 ± 0.72
m1 = 0.00148 | 53.67 ± 0.7
m1 = 0.00196 | 53.93 ± 0.7
m1 = 0.00244 | 53.53 ± 0.7
m1 = 0.00291 | 52.63 ± 0.69
m1 = 0.00338 | 52.13 ± 0.68
m1 = 0.00476 | 49.16 ± 0.65
m1 = 0.00654 | 45.2 ± 0.6
m1 = 0.00826 | 42.32 ± 0.57
m1 = 0.00991 | 39.41 ± 0.54
m1 = 0.0115 | 36.77 ± 0.51
m1 = 0.013 | 34.09 ± 0.47
m1 = 0.0138 | 34.98 ± 0.49
m1 = 0.0145 | 37.44 ± 0.51
m1 = 0.0153 | 37.98 ± 0.52
m1 = 0.016 | 38.33 ± 0.52
m1 = 0.0167 | 38.47 ± 0.52
m1 = 0.0177 | 38.69 ± 0.53
m1 = 0.0184 | 38.46 ± 0.52

CCCCCCCCCCCC[N+](C)(C)[O-] [Dodecyldimethylamine oxide] + O
[1]
Settings | surface tension liquid-gas [mN/m]
m1 = 0.00025 | 43.18 ± 0.58
m1 = 0.0005 | 39.98 ± 0.54
m1 = 0.00074 | 39.2 ± 0.53
m1 = 0.00099 | 36.87 ± 0.51
m1 = 0.00123 | 35.11 ± 0.49
m1 = 0.00148 | 33.73 ± 0.47
m1 = 0.00172 | 33.19 ± 0.46
m1 = 0.00196 | 33.32 ± 0.46
m1 = 0.00244 | 34.06 ± 0.48
m1 = 0.00291 | 34.05 ± 0.47
m1 = 0.00338 | 34.22 ± 0.48
m1 = 0.00385 | 34.14 ± 0.47
m1 = 0.00431 | 34.17 ± 0.47
